The values that follow are results of earlier work, collected in patent US11872245B2, “Antiseptic polymer and synthesis thereof” (TRIMPH IP PTY LIMITED, priority 2015, dated 2024).

For one data set, the target named is V3 (Homo sapiens, UniProt P05106+P06756).
The target in the next data set is IIb3 (Homo sapiens, UniProt P05106+P08514).
Chain of IIb3 (P08514 32-1039): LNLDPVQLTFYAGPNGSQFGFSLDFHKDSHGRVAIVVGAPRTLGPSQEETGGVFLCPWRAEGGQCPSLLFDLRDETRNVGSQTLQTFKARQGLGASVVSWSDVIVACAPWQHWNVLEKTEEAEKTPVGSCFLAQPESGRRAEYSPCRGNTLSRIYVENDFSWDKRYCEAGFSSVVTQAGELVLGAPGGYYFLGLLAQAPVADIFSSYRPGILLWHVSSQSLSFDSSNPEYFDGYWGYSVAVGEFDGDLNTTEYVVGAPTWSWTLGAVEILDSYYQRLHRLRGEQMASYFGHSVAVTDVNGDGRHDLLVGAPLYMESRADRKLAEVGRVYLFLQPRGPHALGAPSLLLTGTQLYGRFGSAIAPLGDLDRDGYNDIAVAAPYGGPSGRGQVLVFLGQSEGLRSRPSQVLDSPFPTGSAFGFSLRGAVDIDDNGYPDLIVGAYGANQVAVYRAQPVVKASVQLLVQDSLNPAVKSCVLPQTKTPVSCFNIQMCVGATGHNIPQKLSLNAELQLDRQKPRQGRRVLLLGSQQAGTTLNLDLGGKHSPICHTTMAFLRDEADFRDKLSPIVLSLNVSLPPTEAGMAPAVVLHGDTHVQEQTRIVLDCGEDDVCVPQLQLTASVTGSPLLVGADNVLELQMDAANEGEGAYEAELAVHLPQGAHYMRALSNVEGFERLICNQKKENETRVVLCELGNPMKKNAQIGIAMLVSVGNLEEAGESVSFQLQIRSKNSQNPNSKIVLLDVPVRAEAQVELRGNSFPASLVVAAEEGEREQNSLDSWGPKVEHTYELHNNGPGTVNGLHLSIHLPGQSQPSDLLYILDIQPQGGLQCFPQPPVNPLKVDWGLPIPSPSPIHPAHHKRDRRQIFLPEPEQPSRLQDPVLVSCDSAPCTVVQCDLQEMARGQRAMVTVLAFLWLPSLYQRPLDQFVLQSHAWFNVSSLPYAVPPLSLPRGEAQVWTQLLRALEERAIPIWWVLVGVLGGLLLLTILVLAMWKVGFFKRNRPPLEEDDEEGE
Chain of IIb3 (P05106 27-788): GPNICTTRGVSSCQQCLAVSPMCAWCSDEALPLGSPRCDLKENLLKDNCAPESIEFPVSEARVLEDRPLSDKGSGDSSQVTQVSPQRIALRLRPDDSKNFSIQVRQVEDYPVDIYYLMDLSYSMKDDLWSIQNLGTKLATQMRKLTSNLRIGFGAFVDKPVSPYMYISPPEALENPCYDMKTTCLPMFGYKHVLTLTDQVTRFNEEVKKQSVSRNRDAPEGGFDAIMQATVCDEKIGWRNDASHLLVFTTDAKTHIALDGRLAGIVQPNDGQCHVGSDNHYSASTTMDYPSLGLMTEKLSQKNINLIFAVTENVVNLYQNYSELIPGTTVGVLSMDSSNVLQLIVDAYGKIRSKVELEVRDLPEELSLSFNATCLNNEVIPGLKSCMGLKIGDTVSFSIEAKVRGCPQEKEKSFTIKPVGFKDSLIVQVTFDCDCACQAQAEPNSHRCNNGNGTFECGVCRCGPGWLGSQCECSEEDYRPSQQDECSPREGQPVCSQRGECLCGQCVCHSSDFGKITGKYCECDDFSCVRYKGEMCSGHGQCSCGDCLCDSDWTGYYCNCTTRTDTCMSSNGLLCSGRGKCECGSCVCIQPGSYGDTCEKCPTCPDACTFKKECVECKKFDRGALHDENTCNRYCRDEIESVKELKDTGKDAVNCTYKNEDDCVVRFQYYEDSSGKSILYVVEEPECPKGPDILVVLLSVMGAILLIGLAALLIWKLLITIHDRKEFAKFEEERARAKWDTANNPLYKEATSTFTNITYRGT

Chain of V3 (P06756 31-1048): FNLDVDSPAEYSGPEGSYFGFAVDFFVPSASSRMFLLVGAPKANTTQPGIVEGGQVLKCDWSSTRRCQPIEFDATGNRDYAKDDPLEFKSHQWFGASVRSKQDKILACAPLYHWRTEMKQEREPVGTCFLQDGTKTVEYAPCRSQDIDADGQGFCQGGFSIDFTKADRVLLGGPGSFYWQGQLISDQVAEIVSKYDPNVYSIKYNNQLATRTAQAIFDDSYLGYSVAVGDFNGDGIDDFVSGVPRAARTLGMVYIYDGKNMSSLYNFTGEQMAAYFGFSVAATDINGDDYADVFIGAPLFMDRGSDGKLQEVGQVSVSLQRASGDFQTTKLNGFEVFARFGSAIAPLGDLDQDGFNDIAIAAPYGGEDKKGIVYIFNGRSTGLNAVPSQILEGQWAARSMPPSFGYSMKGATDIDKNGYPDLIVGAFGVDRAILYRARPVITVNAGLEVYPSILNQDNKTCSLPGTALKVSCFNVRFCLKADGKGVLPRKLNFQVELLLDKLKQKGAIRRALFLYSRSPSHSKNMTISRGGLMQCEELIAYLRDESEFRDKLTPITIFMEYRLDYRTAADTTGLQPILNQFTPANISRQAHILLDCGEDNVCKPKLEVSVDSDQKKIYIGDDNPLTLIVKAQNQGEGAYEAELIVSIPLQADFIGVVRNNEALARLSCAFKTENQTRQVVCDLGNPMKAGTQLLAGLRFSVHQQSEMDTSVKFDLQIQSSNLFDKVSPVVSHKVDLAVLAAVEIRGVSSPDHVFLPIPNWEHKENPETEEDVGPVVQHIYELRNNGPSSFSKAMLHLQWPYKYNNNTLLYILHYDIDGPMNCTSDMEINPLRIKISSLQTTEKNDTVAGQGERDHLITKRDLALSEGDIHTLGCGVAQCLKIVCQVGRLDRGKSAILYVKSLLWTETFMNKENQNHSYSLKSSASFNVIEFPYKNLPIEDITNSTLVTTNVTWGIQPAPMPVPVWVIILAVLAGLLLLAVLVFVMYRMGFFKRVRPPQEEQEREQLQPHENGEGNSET
Chain of V3 (P05106 27-788): as the sequence (P05106 27-788) above

Consider {GLY}{ARG}{GLY}{ASP}{SER} [GRGDS], for which the affinity result at V3 and on IIb3 was “intermediate affinity” each time.
